Measurements as given in patent US10821115B2, “Compounds that inhibit Mcl-1 protein” (priority 2017, dated 2020).
Read-outs that look alike come from different tables or passages of the source.

Key:
[1] = target: recombinant human Mcl-1 (residues 171-327) / Bim interaction (Homo sapiens (Human), UniProt Q07820); assay: biochemical; format: binding
[2] = tested on: human multiple myeloma cell line, OPM-2; assay: Cell viability assay (OPM-2 10 FBS), CellTiter-Glo; format: cell-based; conditions: Homo sapiens, OPM-2, 16 h, read-out: OPM-2 10% FBS IC50 IP, OPM-2 cells, 10% FBS, 16 h, CellTiter-Glo
Procedure, shortened: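 Steps: plate cells at 3000/well in 10% FBS growth medium, add serially diluted compound, incubate 16 h at 37 °C with 5% CO2, add detection reagent and read luminescence after 25 min. A 4-parameter logistic model gives IC50.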

[3] = TR-FRET, Mcl-1(171-327) / biotin-Bim (51-76), read-out: Mcl-1 HTRF IC50

Sequence of recombinant human Mcl-1 (residues 171-327) / Bim interaction (Q07820 171-327): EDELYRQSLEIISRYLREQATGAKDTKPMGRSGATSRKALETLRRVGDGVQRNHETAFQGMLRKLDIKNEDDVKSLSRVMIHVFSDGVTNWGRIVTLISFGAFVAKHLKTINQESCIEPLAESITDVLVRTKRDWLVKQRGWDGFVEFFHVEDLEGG

SMILES | IC50 [1, 3] [nM] | IC50 [2] [nM] | IC50 ([1]; read-out: Mcl-1 HTRF IC50) [nM] | IC50 ([1]; Mcl-1 HTRF IC50) [nM]
COCCN(C)C(=O)C[C@]1(OC)/C=C/C[C@H](C)[C@@H](C)S(=O)(=O)NC(=O)c2ccc3c(c2)N(C[C@@H]2CC[C@H]21)C[C@@]1(CCCc2cc(Cl)ccc21)CO3 [Example 100005, 2-((1 S,3′R,6′R,7′S,8′E,11′S, 12′R)-6-chloro-7′-methoxy-11′,12′-dimethyl-13′,13′-dioxido-15′-oxo-3,4-dihydro-2H-spiro[naphthalene-1,22′-[20]oxa[13]thia[1,14]diazatetracyclo[14.7.2.0-3,6˜.0˜19,24˜]pentacosa[8,16,18,24]tetraen]-7′-yl)-N-(2-methoxyethyl)-N-methylacetamide] | 0.091 | 62 |  | 
CO[C@@]1(CC(=O)N2CCC2)/C=C/C[C@H](C)[C@@H](C)S(=O)(=O)NC(=O)c2ccc3c(c2)N(C[C@@H]2CC[C@H]21)C[C@@]1(CCCc2cc(Cl)ccc21)CO3 [Example 100006, (1 S,3′R,6′R,7′S,8′E,11′S,12′R)-7′-(2-(1-azetidinyl)-2-oxoethyl)-6-chloro-7′-methoxy-1′,12′-dimethyl-3,4-dihydro-2H, 15′H-spiro[naphthalene-1,22′-[20]oxa[13]thia[1,14]diazatetracyclo[14.7.2.0-3,6˜.0˜19,24˜]pentacosa[8,16,18,24]tetraen]-15′-one 13′,13′-dioxide] | 0.081 | 131 |  | 
C[C@@H]1[C@@H](C)C/C=C/[C@](C)(OCCN2CCOCC2)[C@@H]2CC[C@H]2CN2C[C@@]3(CCCc4cc(Cl)ccc43)COc3ccc(cc32)C(=O)NS1(=O)=O [Example 100007, (1 S,3′R,6′R,7′S,8′E,11′S, 12′R)-6-chloro-7′,11′,12′-trimethyl-7′-(2-(4-morpholinyl)ethoxy)-3,4-dihydro-2H, 15′H-spiro[naphthalene-1,22′-[20]oxa[13]thia[1,14]diazatetracyclo[14.7.2.0-3,6˜.0˜19,24˜]pentacosa[8,16,18,24]tetraen]-15′-one 13′,13′-dioxide] | 0.367 | 142 |  | 
CO[C@@]1(CC(=O)N(C)C(C)(C)C)/C=C/C[C@H](C)[C@@H](C)S(=O)(=O)NC(=O)c2ccc3c(c2)N(C[C@@H]2CC[C@H]21)C[C@@]1(CCCc2cc(Cl)ccc21)CO3 [Example 100008, 2-((1 S,3′R,6′R,7′S,8′E,11′S, 12′R)-6-chloro-7′-methoxy-11′,12′-dimethyl-13′,13′-dioxido-15′-oxo-3,4-dihydro-2H-spiro[naphthalene-1,22′-[20]oxa[13]thia[1,14]diazatetracyclo[14.7.2.0-3,6˜.0˜19,24˜]pentacosa[8,16,18,24]tetraen]-7′-yl)-N-methyl-N-(2-methyl-2-propanyl)acetamide] | 0.17 | 541 |  | 
CNC(=O)C[C@]1(OC)/C=C/C[C@H](C)[C@@H](C)S(=O)(=O)NC(=O)c2ccc3c(c2)N(C[C@@H]2CC[C@H]21)C[C@@]1(CCCc2cc(Cl)ccc21)CO3 [Example 100009, 2-((1 S,3′R,6′R,7′S,8′E,11′S, 12′R)-6-chloro-7′-methoxy-11′,12′-dimethyl-13′,13′-dioxido-15′-oxo-3,4-dihydro-2H-spiro[naphthalene-1,22′-[20]oxa[13]thia[1,14]diazatetracyclo[14.7.2.0-3,6˜.0˜19,24˜]pentacosa[8,16,18,24]tetraen]-7′-yl)-N-methylacetamide] | 0.128 | 216 |  | 
CO[C@@]1(CC(=O)N2CCCC2)/C=C/C[C@H](C)[C@@H](C)S(=O)(=O)NC(=O)c2ccc3c(c2)N(C[C@@H]2CC[C@H]21)C[C@@]1(CCCc2cc(Cl)ccc21)CO3 [Example 100010, (1 S,3′R,6′R,7′S,8′E,11′S, 12′R)-6-chloro-7′-methoxy-11′,12′-dimethyl-7′-(2-oxo-2-(1-pyrrolidinyl)ethyl)-3,4-dihydro-2H, 15′H-spiro[naphthalene-1,22′-[20]oxa[13]thia[1,14]diazatetracyclo[14.7.2.0-3,6˜.0˜19,24˜]pentacosa[8,16,18,24]tetraen]-15′-one 13′,13′-dioxide] | 0.077 | 142 |  | 
CO[C@@]1(C#CCCN2CCN3CCOC[C@@H]3C2)/C=C/C[C@H](C)[C@@H](C)S(=O)(=O)NC(=O)c2ccc3c(c2)N(C[C@@H]2CC[C@H]21)C[C@@]1(CCCc2cc(Cl)ccc21)CO3 [Example 100011, (1 S,3′R,6′R,7′S,8′E,11′S, 12′R)-6-chloro-7′-(4-((9aS)-hexahydropyrazino[2,1-c][1,4]oxazin-8(1H)-yl)-1-butyn-1-yl)-7′-methoxy-11′,12′-dimethyl-3,4-dihydro-2H,15′H-spiro[naphthalene-1,22′-[20]oxa[13]thia[1,14]diazatetracyclo[14.7.2.0-3,6˜.0˜19,24˜]pentacosa[8,16,18,24]tetraen]-15′-one 13′,13′-dioxide] | 0.153 | 134 |  | 
CO[C@@]1(C)/C=C/C[C@H](C)[C@@H](C)S(=O)(=O)NC(=O)c2ccc3c(c2)N(C[C@@H]2CC[C@H]21)C[C@@]1(CCCc2cc(Cl)ccc21)CO3 [Example 100014, (1S,3′R,6′R,7′S,8′E, 11′S, 12′R)-6-chloro-7′-methoxy-7′,11′,12′-trimethyl-3,4-dihydro-2H,15′H-spiro[naphthalene-1,22′-[20]oxa[13]thia[1,14]diazatetracyclo[14.7.2.0-3,6˜.0˜19,24˜]pentacosa[8,16,18,24]tetraen]-15′-one 13′,13′-dioxide] |  | 330 | 0.228 | 
C[C@@H]1[C@@H](C)C/C=C/[C@](C)(O)[C@@H]2CC[C@H]2CN2C[C@@]3(CCCc4cc(Cl)ccc43)COc3ccc(cc32)C(=O)NS1(=O)=O [Example 100016, (1S,3′R,6′R,7′S,8′E,11′S, 12′R)-6-chloro-7′-hydroxy-7′,11′,12′-trimethyl-3,4-dihydro-2H,15′H-spiro[naphthalene-1,22′-[20]oxa[13]thia[1,14]diazatetracyclo[14.7.2.0-3,6˜.0˜19,24˜]pentacosa[8,16,18,24]tetraen]-15′-one 13′,13′-dioxide] |  | 132 |  | 0.182
CC[C@@H]1CCCC[C@@](O)(CO)[C@@H]2CC[C@H]2CN2C[C@@]3(CCCc4cc(Cl)ccc43)COc3ccc(cc32)C(=O)NS1(=O)=O [Example 100035, (1S,3′R,6′R,7′S,12′R)-6-chloro-12′-ethyl-7′-hydroxy-7′-(hydroxymethyl)-3,4-dihydro-2H,15′H-spiro[naphthalene-1,22′-[20]oxa[13]thia[1,14]diazatetracyclo [14.7.2.0~3,6~.0~19,24~]pentacosa[16,18,24]trien]-15′-one 13′,13′-dioxide] | 0.601 | 1470 |  | 
CC[C@@H]1CCCC[C@](O)(CO)[C@@H]2CC[C@H]2CN2C[C@@]3(CCCc4cc(Cl)ccc43)COc3ccc(cc32)C(=O)NS1(=O)=O [Example 100036, (1S,3′R,6′R,7′R,12′R)-6-chloro-12′-ethyl-7′-hydroxy-7′-(hydroxymethyl)-3,4-dihydro-2H,15′H-spiro[naphthalene-1,22′-[20]oxa[13]thia[1,14]diazatetracyclo [14.7.2.0~3,6~.0~19,24~]pentacosa[16,18,24]trien]-15′-one 13′,13′-dioxide] | 0.889 | 1980 |  | 
CC[C@@H]1CCCC[C@](COC)(OC)[C@@H]2CC[C@H]2CN2C[C@@]3(CCCc4cc(Cl)ccc43)COc3ccc(cc32)C(=O)NS1(=O)=O [Example 100037, (1S,3′R,6′R,7′S,12′R)-6-chloro-12′-ethyl-7′-methoxy-7′-(methoxymethyl)-3,4-dihydro-2H,15′H-spiro[naphthalene-1,22′-[20]oxa[13]thia[1,14]diazatetracyclo [14.7.2.0~3,6~.0~19,24~]pentacosa[16,18,24]trien]-15′-one 13′,13′-dioxide] | 1.8 | 1920 |  | 
CC[C@@H]1CCCC[C@@](COC)(OC)[C@@H]2CC[C@H]2CN2C[C@@]3(CCCc4cc(Cl)ccc43)COc3ccc(cc32)C(=O)NS1(=O)=O [Example 100038, (1S,3′R,6′R,7′R,12′R)-6-chloro-12′-ethyl-7′-methoxy-7′-(methoxymethyl)-3,4-dihydro-2H,15′H-spiro[naphthalene-1,22′-[20]oxa[13]thia[1,14]diazatetracyclo [14.7.2.0~3,6~.0~19,24~]pentacosa[16,18,24]trien]-15′-one 13′,13′-dioxide] | 1.66 | 2560 |  | 
CC[C@@H]1CCCC[C@@](O)(COC)[C@@H]2CC[C@H]2CN2C[C@@]3(CCCc4cc(Cl)ccc43)COc3ccc(cc32)C(=O)NS1(=O)=O [Example 100039, (1S,3′R,6′R,7′S,12′R)-6-chloro-12′-ethyl-7′-hydroxy-7′-(methoxymethyl)-3,4-dihydro-2H,15′H-spiro[naphthalene-1,22′-[20]oxa[13]thia[1,14]diazatetracyclo [14.7.2.0~3,6~.0~19,24~]pentacosa[16,18,24]trien]-15′-one 13′,13′-dioxide] | 0.563 | 744 |  | 
CC[C@@H]1CCCC[C@](O)(COC)[C@@H]2CC[C@H]2CN2C[C@@]3(CCCc4cc(Cl)ccc43)COc3ccc(cc32)C(=O)NS1(=O)=O [Example 100040, (1S,3′R,6′R,7′R,12′R)-6-chloro-12′-ethyl-7′-hydroxy-7′-(methoxymethyl)-3,4-dihydro-2H,15′H-spiro[naphthalene-1,22′-[20]oxa[13]thia[1,14]diazatetracyclo [14.7.2.0~3,6~.0~19,24~]pentacosa[16,18,24]trien]-15′-one 13′,13′-dioxide] | 2.75 | 4950 |  | 
CC[C@@H]1CCCC[C@](CO)(OC)[C@@H]2CC[C@H]2CN2C[C@@]3(CCCc4cc(Cl)ccc43)COc3ccc(cc32)C(=O)NS1(=O)=O [Example 100041, (1S,3′R,6′R,7′S,12′R)-6-chloro-12′-ethyl-7′-(hydroxymethyl)-7′-methoxy-3,4-dihydro-2H,15′H-spiro[naphthalene-1,22′-[20]oxa[13]thia[1,14]diazatetracyclo [14.7.2.0~3,6~.0~19,24~]pentacosa[16,18,24]trien]-15′-one 13′,13′-dioxide] | 3.36 | 4990 |  | 
